Source: patent publication US4189426A, “Recombinant hormonal compositions and method” (Hoffmann-La Roche, Inc., priority 1978, dated 1980)
No end group written: not given here.

Tests used:
pigeon crop-sac = test: local crop-sac assay in the pigeon (prolactin / lactogenic activity); type: in vivo; details: Table 10, mean ± SEM, number of birds in parentheses
Protocol: The growth-promoting activity of PL-HGH, the unpurified recombinant of Example 1 (fraction IV), [Cys(Cam)^53 -HGH-(1-134)], [Cys(Cam)^165, 182, 189 -HGH-(141-191)] and saline control were determined by the rat tibia test of Greenspan et al, Endocrinology 45, 455 (1949) and by the local crop-sac assay in the pigeon according to Lyons, Proc. Soc. Exp. Biol. 35, 645 (1937) and Nicoll, Endocrinology 80, 641 (1967). Amino acid compositions of acid and carboxypeptidase hydrolysates were determined in an automatic amino acid analyzer (model 120B, Beckman Instruments). For the analysis of tryptophan, the methanesulfonic acid hydrolysates were used. Amino-terminal residue and sequence analyses were preformed by the dansyl-Edman procedure. Isoelectric focusing was carried out in 8 M urea. Prolactin activity was estimated by the pigeon crop-sac assay. Microcomplement fixation experiments were performed with rabbit antisera to HCS. The gel-double-diffusion technique of Ouchterlony was done using 1% agar in 0.01 M phosphate buffer of pH 7.5. Exclusion chromatography of the purified fragments or the recombinant was performed on a Sephadex G-100 column (1.5×60 cm; V0 =35 ml) in 10 mM NH4 HCO3 (pH 8.4) at 21°. Circular dichroism (CD) spectra were obtained by a spectropolarimeter (Cary model 60) equipped with a circular dichroism attachment (model 6002). Microcomplement fixation was performed with the guinea pig antiserum to ovine prolactin. The gel double-diffusion technique of Ouchterlony was carried out with 1% agar in 10 mM phosphate buffer (pH 7.5). The prolactin activity was estimated by the local crop-sac assay in the pigeon.

antiserum to prolactin = test: gel double-diffusion technique of Ouchterlony; type: binding
Protocol: (§1) Exclusion chromatography of the purified fragments or the recombinant was performed on a Sephadex G-100 column (1.5×60 cm; V0 =35 ml) in 10 mM NH4 HCO3 (pH 8.4) at 21°. Circular dichroism (CD) spectra were obtained by a spectropolarimeter (Cary model 60) equipped with a circular dichroism attachment (model 6002). Microcomplement fixation was performed with the guinea pig antiserum to ovine prolactin. The gel double-diffusion technique of Ouchterlony was carried out with 1% agar in 10 mM phosphate buffer (pH 7.5). The prolactin activity was estimated by the local crop-sac assay in the pigeon.

[1] = Birk and Li, Proc. Natl. Acad. Sci. U.S.A. 75(5), 2155 (1978); cited from earlier work
[2] = conformational, immunological and biological activity of Example 8 and 9 recombinants compared with native hormone; details: Examples 8 and 9, present tense, no data
[3] = test system: guinea pig antiserum to ovine prolactin; test: microcomplement fixation; type: binding; details: guinea pig antiserum to ovine prolactin at a dilution of 1:5000; 10 ng of the antigen
Protocol: as §1

| Molecule | Response (dry mucosal weight) (pigeon crop-sac; total dose 120 μg) [mg] | precipitin line (antiserum to prolactin) | biological activity, in words [1] | conformational, immunological and biological activity, in words [2] | Response (dry mucosal weight) (pigeon crop-sac; total dose 2 μg) [mg] | Response (dry mucosal weight) (pigeon crop-sac; total dose 6 μg) [mg] | complement fixed [3] [%] |
| --- | --- | --- | --- | --- | --- | --- | --- |
| PRL-(1-53): NH2-terminal portion, residues 1-53, of ovine prolactin from fibrinolysin digestion (TPVCPNGPGNCQVSLRDLFDRAVMVSHYIHNLSSEMFNEFDKRYAQGKGFITM; ends and bridges not checked; cysteine pairing not given here; UniProt P01240 31-83, looked up, fragment) | 10.1 ± 2.6 | neither fragment gave a precipitin line | inactive | – | – | – | – |
| [Cys(Cam)^53 ]-HGH-(1-134)+(Lys^135,136,138, Glu^137,139, Nle^170, Ala^165,182,189)-HGH-(135-191) | – | – | – | analogous conformational, immunological and biological activity as native HGH | – | – | – |
| Prolactin: prolactin isolated from sheep pituitary glands (protein, UniProt P01240 31-229, looked up) Prolactin: TPVCPNGPGNCQVSLRDLFDRAVMVSHYIHNLSSEMFNEFDKRYAQGKGFITMALNSCHTSSLPTPEDKEQAQQTHHEVLMSLILGLLRSWNDPLYHLVTEVRGMKGVPDAILSRAIEIEEENKRLLEGMEMIFGQVIPGAKETEPYPVWSGLPSLQTKDEDARHSAFYNLLHCLRRDSSKIDTYLKLLNCRIIYNNNC | – | single precipitin line | – | – | 20.5 ± 0.9 | 45.2 ± 3.1 | 98 |
